From patent publication US10670605B2, “Cysteine reactive probes and uses thereof” (The Scripps Research Institute, priority 2015, dated 2020)
Each block holds one compound with its values, some of them ahead of it.

Legend:
Experiment in all cases: Competitive isoTOP-ABPP in situ (fragment-treated cells)
Format in all cases: cell-based
[1] = target: cysteines in MDA-MB-231 and Ramos cells (Homo sapiens, UniProt P04818)
[2] = target: T1, cysteines in MDA-MB-231 and Ramos cells (Homo sapiens, UniProt P24468)
T1 sequence (P24468 1-414): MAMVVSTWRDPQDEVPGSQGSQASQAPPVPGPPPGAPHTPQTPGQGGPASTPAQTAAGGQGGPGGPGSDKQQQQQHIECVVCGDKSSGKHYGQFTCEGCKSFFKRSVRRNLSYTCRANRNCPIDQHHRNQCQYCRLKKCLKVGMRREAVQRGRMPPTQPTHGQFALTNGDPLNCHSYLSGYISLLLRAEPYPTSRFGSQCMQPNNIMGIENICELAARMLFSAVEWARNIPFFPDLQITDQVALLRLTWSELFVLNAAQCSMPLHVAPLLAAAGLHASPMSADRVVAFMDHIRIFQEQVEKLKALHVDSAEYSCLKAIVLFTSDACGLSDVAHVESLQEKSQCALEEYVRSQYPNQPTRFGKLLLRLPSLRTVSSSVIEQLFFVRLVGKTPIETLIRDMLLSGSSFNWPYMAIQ

[3] = target: cysteines in MDA-MB-231 and Ramos cells (Homo sapiens, UniProt Q14137)
[4] = target: T2, cysteines in MDA-MB-231 and Ramos cells (Homo sapiens, UniProt Q9NRW3)
T2 sequence (Q9NRW3 1-190): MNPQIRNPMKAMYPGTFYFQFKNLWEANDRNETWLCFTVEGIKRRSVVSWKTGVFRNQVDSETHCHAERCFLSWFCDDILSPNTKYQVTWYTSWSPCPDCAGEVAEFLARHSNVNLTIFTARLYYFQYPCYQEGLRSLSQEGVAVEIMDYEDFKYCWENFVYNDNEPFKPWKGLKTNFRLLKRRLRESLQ

[5] = target: T3, cysteines in MDA-MB-231 and Ramos cells (Homo sapiens, UniProt Q9P0J1)
T3 sequence (Q9P0J1 72-537): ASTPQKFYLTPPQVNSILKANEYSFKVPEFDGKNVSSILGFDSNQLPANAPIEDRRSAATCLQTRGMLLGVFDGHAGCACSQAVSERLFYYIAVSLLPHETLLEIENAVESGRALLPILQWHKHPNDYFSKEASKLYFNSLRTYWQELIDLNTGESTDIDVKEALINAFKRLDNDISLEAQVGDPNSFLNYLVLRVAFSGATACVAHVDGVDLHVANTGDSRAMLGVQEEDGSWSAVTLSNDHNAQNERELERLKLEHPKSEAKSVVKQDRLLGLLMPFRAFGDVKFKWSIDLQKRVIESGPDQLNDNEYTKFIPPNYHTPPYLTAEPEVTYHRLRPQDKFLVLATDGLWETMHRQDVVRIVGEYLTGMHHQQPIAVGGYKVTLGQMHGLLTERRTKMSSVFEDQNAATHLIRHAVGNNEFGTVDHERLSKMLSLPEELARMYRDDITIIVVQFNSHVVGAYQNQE

[6] = target: cysteines in MDA-MB-231 and Ramos cells (Homo sapiens, UniProt Q9UJW0)
[7] = target: cysteines in MDA-MB-231 and Ramos cells (Homo sapiens, UniProt Q00765)
[8] = target: cysteines in MDA-MB-231 and Ramos cells (Homo sapiens, UniProt Q9BRF8)
[9] = target: cysteines in MDA-MB-231 and Ramos cells (Homo sapiens, UniProt P51812)
[10] = target: T4, cysteines in MDA-MB-231 and Ramos cells (Homo sapiens, UniProt Q86W42)
T4 sequence (Q86W42 1-341): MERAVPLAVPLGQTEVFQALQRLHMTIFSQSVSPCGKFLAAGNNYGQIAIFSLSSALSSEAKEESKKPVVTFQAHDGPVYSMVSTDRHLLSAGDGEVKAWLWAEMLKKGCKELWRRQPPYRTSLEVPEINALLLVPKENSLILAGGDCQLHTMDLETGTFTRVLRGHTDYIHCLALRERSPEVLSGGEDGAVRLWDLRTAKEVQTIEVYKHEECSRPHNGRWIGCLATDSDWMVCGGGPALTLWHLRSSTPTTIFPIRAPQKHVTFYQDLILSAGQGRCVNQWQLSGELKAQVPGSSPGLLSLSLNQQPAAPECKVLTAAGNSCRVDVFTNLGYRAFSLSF

cysteines in MDA-MB-231 and Ramos cells (Homo sapiens, UniProt Q9BRF8), sequence (Q9BRF8 whole entry): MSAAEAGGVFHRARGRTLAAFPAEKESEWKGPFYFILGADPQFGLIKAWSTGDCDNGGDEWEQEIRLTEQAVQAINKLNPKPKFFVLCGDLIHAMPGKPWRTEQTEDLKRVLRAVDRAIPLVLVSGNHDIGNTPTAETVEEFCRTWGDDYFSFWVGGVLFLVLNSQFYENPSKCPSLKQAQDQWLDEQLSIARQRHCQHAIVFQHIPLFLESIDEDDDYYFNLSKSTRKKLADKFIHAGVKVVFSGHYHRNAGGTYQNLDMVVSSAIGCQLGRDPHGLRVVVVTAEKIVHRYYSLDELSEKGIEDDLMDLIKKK
cysteines in MDA-MB-231 and Ramos cells (Homo sapiens, UniProt P51812), sequence (P51812 whole entry): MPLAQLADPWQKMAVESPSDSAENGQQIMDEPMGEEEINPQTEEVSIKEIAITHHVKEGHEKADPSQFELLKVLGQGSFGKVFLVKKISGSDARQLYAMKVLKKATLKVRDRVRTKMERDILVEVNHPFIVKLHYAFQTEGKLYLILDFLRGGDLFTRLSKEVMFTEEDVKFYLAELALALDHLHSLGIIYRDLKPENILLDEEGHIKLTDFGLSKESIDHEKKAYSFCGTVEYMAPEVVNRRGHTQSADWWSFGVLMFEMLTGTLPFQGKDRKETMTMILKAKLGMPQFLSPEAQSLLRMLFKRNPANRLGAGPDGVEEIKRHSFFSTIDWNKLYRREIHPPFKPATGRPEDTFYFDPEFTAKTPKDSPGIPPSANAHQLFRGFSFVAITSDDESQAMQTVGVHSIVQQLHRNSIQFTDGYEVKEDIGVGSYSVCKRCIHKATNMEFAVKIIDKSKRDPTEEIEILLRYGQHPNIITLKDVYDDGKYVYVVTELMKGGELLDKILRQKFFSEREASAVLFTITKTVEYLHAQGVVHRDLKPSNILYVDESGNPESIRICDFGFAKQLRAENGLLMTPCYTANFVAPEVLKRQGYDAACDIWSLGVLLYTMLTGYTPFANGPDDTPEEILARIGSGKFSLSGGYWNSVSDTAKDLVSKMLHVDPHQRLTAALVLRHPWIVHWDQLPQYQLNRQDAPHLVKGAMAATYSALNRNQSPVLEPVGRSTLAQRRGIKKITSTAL
cysteines in MDA-MB-231 and Ramos cells (Homo sapiens, UniProt Q00765), sequence (Q00765 whole entry): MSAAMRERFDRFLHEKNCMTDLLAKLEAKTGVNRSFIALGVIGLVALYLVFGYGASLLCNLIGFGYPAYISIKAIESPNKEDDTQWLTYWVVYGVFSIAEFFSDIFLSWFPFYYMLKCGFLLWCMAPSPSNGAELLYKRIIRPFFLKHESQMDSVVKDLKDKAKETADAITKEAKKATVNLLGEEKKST
cysteines in MDA-MB-231 and Ramos cells (Homo sapiens, UniProt P04818), sequence (P04818 whole entry): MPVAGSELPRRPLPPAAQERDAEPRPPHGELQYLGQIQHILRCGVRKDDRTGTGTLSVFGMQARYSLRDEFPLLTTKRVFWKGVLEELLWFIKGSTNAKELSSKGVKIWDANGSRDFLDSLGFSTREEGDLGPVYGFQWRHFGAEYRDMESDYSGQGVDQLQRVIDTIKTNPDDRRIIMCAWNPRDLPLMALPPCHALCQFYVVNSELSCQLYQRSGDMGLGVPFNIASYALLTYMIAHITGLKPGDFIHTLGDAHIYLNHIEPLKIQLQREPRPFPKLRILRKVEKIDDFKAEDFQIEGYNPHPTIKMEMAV
cysteines in MDA-MB-231 and Ramos cells (Homo sapiens, UniProt Q14137), sequence (Q14137 whole entry): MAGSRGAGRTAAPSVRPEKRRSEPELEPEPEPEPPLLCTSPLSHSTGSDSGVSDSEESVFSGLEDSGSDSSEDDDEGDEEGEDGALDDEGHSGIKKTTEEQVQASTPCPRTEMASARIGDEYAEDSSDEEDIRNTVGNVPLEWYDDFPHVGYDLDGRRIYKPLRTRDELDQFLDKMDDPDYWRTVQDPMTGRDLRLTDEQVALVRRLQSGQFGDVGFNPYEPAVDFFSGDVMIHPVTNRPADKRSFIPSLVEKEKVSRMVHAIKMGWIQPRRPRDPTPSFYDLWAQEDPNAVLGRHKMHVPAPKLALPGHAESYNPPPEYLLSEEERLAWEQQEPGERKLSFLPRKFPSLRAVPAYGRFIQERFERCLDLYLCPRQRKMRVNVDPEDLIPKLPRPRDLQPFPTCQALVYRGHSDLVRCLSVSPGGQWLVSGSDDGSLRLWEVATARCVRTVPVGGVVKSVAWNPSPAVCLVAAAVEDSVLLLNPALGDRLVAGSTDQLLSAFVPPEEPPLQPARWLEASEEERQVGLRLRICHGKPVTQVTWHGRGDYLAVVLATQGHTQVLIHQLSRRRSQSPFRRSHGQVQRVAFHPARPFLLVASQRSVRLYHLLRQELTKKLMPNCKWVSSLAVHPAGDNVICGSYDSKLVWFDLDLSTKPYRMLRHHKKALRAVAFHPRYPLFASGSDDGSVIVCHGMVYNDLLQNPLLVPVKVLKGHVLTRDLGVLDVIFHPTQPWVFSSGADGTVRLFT
cysteines in MDA-MB-231 and Ramos cells (Homo sapiens, UniProt Q9UJW0), sequence (Q9UJW0 whole entry): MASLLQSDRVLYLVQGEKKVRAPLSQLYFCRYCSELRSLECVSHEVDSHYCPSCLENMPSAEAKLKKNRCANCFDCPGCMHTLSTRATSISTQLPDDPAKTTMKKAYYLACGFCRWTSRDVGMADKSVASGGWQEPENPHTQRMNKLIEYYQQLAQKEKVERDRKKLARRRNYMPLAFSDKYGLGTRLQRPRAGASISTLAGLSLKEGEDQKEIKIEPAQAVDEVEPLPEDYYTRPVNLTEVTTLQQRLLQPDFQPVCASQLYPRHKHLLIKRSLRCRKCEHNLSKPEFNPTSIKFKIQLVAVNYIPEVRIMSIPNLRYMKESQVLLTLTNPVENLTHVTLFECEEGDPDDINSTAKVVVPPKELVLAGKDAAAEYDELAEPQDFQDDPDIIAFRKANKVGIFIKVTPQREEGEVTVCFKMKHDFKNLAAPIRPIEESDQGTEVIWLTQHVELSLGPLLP

isoTOP-ABPP reactivity P04818_C199 TYMS ([1]; 200 μM, insitu, 231): 20.0
isoTOP-ABPP reactivity P24468_C326 NR2F2 ([2]; 200 μM, insitu, 231): 20.0
isoTOP-ABPP reactivity Q14137_C404 BOP1 ([3]; 200 μM, insitu, 231): 20.0
isoTOP-ABPP reactivity Q9NRW3_C130 APOBEC3C ([4]; 200 μM, insitu, 231): 20.0
isoTOP-ABPP reactivity Q9P0J1_C149 PDP1 ([5]; 200 μM, insitu, 231): 20.0
isoTOP-ABPP reactivity Q9UJW0_C258 DCTN4 ([6]; 200 μM, insitu, 231): 4.0
SMILES: COc1ccc2c(c1)CCCN2C(=O)CCl [compound 2]

isoTOP-ABPP reactivity P51812_C436 RPS6KA3 ([9]; 200 μM, insitu, 231): 2.1
isoTOP-ABPP reactivity Q86W42_C35 THOC6 ([10]; 200 μM, insitu, 231): 20.0
isoTOP-ABPP reactivity Q9BRF8_C54 CPPED1 ([8]; 200 μM, insitu, 231): 2.4
SMILES: O=C(CCl)N1CCC(Cc2ccccc2)CC1 [compound 9]

isoTOP-ABPP ratio, cysteine P04818_C199 ([1]; 200 μM, insitu, 231): 1.5
isoTOP-ABPP ratio, cysteine P24468_C326 ([2]; 200 μM, insitu, 231): 20.0
isoTOP-ABPP ratio Q00765_C18 ([7]; 200 μM, insitu, 231): 4.2
isoTOP-ABPP ratio, cysteine Q14137_C404 ([3]; 200 μM, insitu, 231): 20.0
isoTOP-ABPP ratio Q9BRF8_C54 ([8]; 200 μM, insitu, 231): 3.8
isoTOP-ABPP ratio, cysteine Q9P0J1_C149 ([5]; 200 μM, insitu, 231): 18.0
isoTOP-ABPP ratio Q9UJW0_C258 ([6]; 200 μM, insitu, 231): 20.0
isoTOP-ABPP ratio Q9UJW0_C258 ([6]; 200 μM, insitu, ramos): 20.0
SMILES: O=C(CCl)N1CCN(S(=O)(=O)c2ccccc2F)CC1 [compound 10]

isoTOP-ABPP ratio, cysteine P24468_C326 ([2]; 100 μM in situ 231): 0.9
isoTOP-ABPP ratio, cysteine P51812_C436 ([9]; 100 μM in situ 231): 0.5
isoTOP-ABPP ratio Q00765_C18 ([7]; 100 μM in situ 231): 0.8
isoTOP-ABPP ratio Q86W42_C35 ([10]; 100 μM in situ 231): 1.3
isoTOP-ABPP ratio Q9BRF8_C54 ([8]; 100 μM in situ 231): 1.0
isoTOP-ABPP ratio, cysteine Q9P0J1_C149 ([5]; 100 μM in situ 231): 1.4
isoTOP-ABPP ratio Q9UJW0_C258 ([6]; 100 μM in situ 231): 20.0
SMILES: Cn1cc(S(=O)(=O)N2CCOCC2)cc1C(=O)NC(=O)CCl [compound 11]

isoTOP-ABPP ratio P04818_C199 ([1]; 200 μM, insitu, ramos): 2.5
isoTOP-ABPP ratio P51812_C436 ([9]; 200 μM, insitu, ramos): 1.3
isoTOP-ABPP ratio Q00765_C18 ([7]; 200 μM, insitu, ramos): 1.4
isoTOP-ABPP ratio Q14137_C404 ([3]; 200 μM, insitu, ramos): 1.5
isoTOP-ABPP ratio Q9BRF8_C54 ([8]; 200 μM, insitu, ramos): 1.5
isoTOP-ABPP ratio Q9NRW3_C130 ([4]; 200 μM, insitu, ramos): 13.3
isoTOP-ABPP ratio Q9P0J1_C149 ([5]; 200 μM, insitu, ramos): 1.0
isoTOP-ABPP ratio Q9UJW0_C258 ([6]; 200 μM, insitu, ramos): 20.0
SMILES: O=C(CCl)N1CCN(CC(=O)N2CCOCC2)CC1 [compound 29]

isoTOP-ABPP ratio P04818_C199 ([1]; 200 μM, insitu, 231): 0.7
isoTOP-ABPP ratio P24468_C326 ([2]; 200 μM, insitu, 231): 0.8
isoTOP-ABPP ratio P51812_C436 ([9]; 200 μM, insitu, 231): 4.5
isoTOP-ABPP ratio Q86W42_C35 ([10]; 200 μM, insitu, 231): 1.1
isoTOP-ABPP ratio Q9BRF8_C54 ([8]; 200 μM, insitu, 231): 0.7
isoTOP-ABPP ratio Q9NRW3_C130 ([4]; 200 μM, insitu, 231): 0.9
isoTOP-ABPP ratio Q9P0J1_C149 ([5]; 200 μM, insitu, 231): 20.0
isoTOP-ABPP ratio Q9UJW0_C258 ([6]; 200 μM, insitu, 231): 0.7
SMILES: Cc1ccc(C=C(C#N)C(=O)NCCN2CCOCC2)cc1 [compound 41]

isoTOP-ABPP ratio P04818_C199 ([1]; 200 μM, insitu, 231): 20.0
isoTOP-ABPP ratio P24468_C326 ([2]; 200 μM, insitu, 231): 20.0
isoTOP-ABPP ratio Q00765_C18 ([7]; 200 μM, insitu, 231): 20.0
isoTOP-ABPP ratio Q86W42_C35 ([10]; 200 μM, insitu, 231): 20.0
isoTOP-ABPP ratio Q9BRF8_C54 ([8]; 200 μM, insitu, 231): 20.0
isoTOP-ABPP ratio Q9NRW3_C130 ([4]; 200 μM, insitu, 231): 20.0
isoTOP-ABPP ratio Q9UJW0_C258 ([6]; 200 μM, insitu, 231): 2.7
SMILES: CC1CCc2ccccc2N1C(=O)CCl (centres unmarked) [compound 45]

Second part, the compound before the results:

SMILES: COc1ccc(C2CC(c3cccs3)=NN2C(=O)CCl)cc1 (centres unmarked) [compound 4]
isoTOP-ABPP reactivity P04818_C199 TYMS ([1]; 100 μM in situ 231): 20.0
isoTOP-ABPP reactivity P24468_C326 NR2F2 ([2]; 100 μM in situ 231): 20.0
isoTOP-ABPP reactivity Q00765_018 REEP5 ([7]; 100 μM in situ 231): 20.0
isoTOP-ABPP reactivity Q14137_C404 BOP1 ([3]; 100 μM in situ 231): 1.2
isoTOP-ABPP reactivity Q9BRF8_C54 CPPED1 ([8]; 100 μM in situ 231): 20.0
isoTOP-ABPP reactivity Q9NRW3_C130 APOBEC3C ([4]; 100 μM in situ 231): 20.0

SMILES: COc1cc2c(cc1OC)CN(C(=O)CCl)CC2 [compound 8]
isoTOP-ABPP reactivity P24468_C326 NR2F2 ([2]; 200 μM, insitu, 231): 20.0
isoTOP-ABPP reactivity Q00765_018 REEP5 ([7]; 200 μM, insitu, 231): 2.7
isoTOP-ABPP reactivity Q9UJW0_C258 DCTN4 ([6]; 200 μM, insitu, 231): 20.0

SMILES: O=C(CCl)NC(=O)NC12CC3CC(CC(C3)C1)C2 [compound 12]
isoTOP-ABPP ratio, cysteine P51812_C436 ([9]; 200 μM, insitu, 231): 1.4
isoTOP-ABPP ratio Q00765_C18 ([7]; 200 μM, insitu, 231): 20.0
isoTOP-ABPP ratio Q9BRF8_C54 ([8]; 200 μM, insitu, 231): 1.2
isoTOP-ABPP ratio, cysteine Q9P0J1_C149 ([5]; 200 μM, insitu, 231): 18.5
isoTOP-ABPP ratio Q9UJW0_C258 ([6]; 200 μM, insitu, 231): 20.0

SMILES: O=C(CCl)NCCc1c[nH]c2ccccc12 [compound 13]
isoTOP-ABPP ratio, cysteine P51812_C436 ([9]; 200 μM, insitu, 231): 1.0
isoTOP-ABPP ratio Q00765_C18 ([7]; 200 μM, insitu, 231): 1.2
isoTOP-ABPP ratio, cysteine Q14137_C404 ([3]; 200 μM, insitu, 231): 1.1
isoTOP-ABPP ratio Q9BRF8_C54 ([8]; 200 μM, insitu, 231): 1.4
isoTOP-ABPP ratio Q9UJW0_C258 ([6]; 200 μM, insitu, ramos): 1.9

SMILES: O=C(CCl)NC12CC3CC(CC(C3)C1)C2 [compound 21]
isoTOP-ABPP ratio, cysteine P24468_C326 ([2]; 200 μM, insitu, 231): 1.1
isoTOP-ABPP ratio Q00765_C18 ([7]; 200 μM, insitu, 231): 0.7
isoTOP-ABPP ratio, cysteine Q14137_C404 ([3]; 200 μM, insitu, 231): 1.1
isoTOP-ABPP ratio, cysteine Q9NRW3_C130 ([4]; 200 μM, insitu, 231): 1.3

SMILES: CC(C)CCOCCNC(=O)CCl [compound 27]
isoTOP-ABPP ratio P04818_C199 ([1]; 200 μM, insitu, 231): 0.5
isoTOP-ABPP ratio P24468_C326 ([2]; 200 μM, insitu, 231): 1.2
isoTOP-ABPP ratio Q00765_C18 ([7]; 200 μM, insitu, 231): 1.1
isoTOP-ABPP ratio Q14137_C404 ([3]; 200 μM, insitu, 231): 0.6
isoTOP-ABPP ratio Q86W42_C35 ([10]; 200 μM, insitu, 231): 1.3
isoTOP-ABPP ratio Q9NRW3_C130 ([4]; 200 μM, insitu, 231): 1.3
isoTOP-ABPP ratio Q9UJW0_C258 ([6]; 200 μM, insitu, 231): 0.8

SMILES: COc1ccccc1OCCNC(=O)CCl [compound 28]
isoTOP-ABPP ratio Q86W42_C35 ([10]; 200 μM, insitu, 231): 1.3

SMILES: C=CC(=O)N(Cc1cccnc1)c1cc(C(F)(F)F)cc(C(F)(F)F)c1 [compound 31]
isoTOP-ABPP ratio Q86W42_C35 ([10]; 200 μM, insitu, 231): 0.5

SMILES: C=CC(=O)Nc1cc(F)c(N2CCN(C(=O)OC(C)(C)C)CC2)c(F)c1 [compound 38]
isoTOP-ABPP ratio P04818_C199 ([1]; 200 μM, insitu, 231): 20.0
isoTOP-ABPP ratio Q86W42_C35 ([10]; 200 μM, insitu, 231): 0.8
isoTOP-ABPP ratio Q9P0J1_C149 ([5]; 200 μM, insitu, 231): 0.9

SMILES: O=C(CCl)Nc1cccc2ncccc12 [compound 51]
isoTOP-ABPP ratio P04818_C199 ([1]; 200 μM, insitu, 231): 20.0
isoTOP-ABPP ratio Q86W42_C35 ([10]; 200 μM, insitu, 231): 1.4
isoTOP-ABPP ratio Q9P0J1_C149 ([5]; 200 μM, insitu, 231): 0.8
isoTOP-ABPP ratio Q9UJW0_C258 ([6]; 200 μM, insitu, 231): 1.1
